Legend:
Format in all cases: in vivo
[1] = system: wild poinsettia (Euphorbia heterophylla); experiment: Test C preemergence, plant response rating
[2] = system: barnyardgrass (Echinochloa crus-galli); experiment: Test C preemergence, plant response rating; conditions: Preemergence
[3] = system: oat, wild (wild oat Avena fatua); experiment: Test C preemergence, plant response rating
[4] = system: surinam grass (Brachiaria decumbens); experiment: Test C preemergence, plant response rating
[5] = system: johnsongrass (Sorghum halepense); experiment: Test C preemergence, plant response rating
[6] = system: velvetleaf (Abutilon theophrasti); experiment: Test C postemergence, plant response rating
Summary of the method: (§1)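 Greenhouse plants rated visually against untreated controls 13–15 d after treatment, scale 0 = no effect to 100 = complete control. Postemergence sprays went onto potted plants 2–18 cm tall (1–4 leaves); preemergence sprays onto soil freshly sown in loam–sand or silt loam, chemicals formulated in non-phytotoxic solvent with surfactant.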

[7] = system: blackgrass (Alopecurus myosuroides); experiment: Test C postemergence, plant response rating; conditions: for Plant response rating, Blackgrass: scale 0 to 100; for Blackgrass plant response rating: scale 0 to 100 (0 no effect, 100 complete control)
Summary of the method: as §1

[8] = system: chickweed (common chickweed, Stellaria media); experiment: Test C postemergence, plant response rating; conditions: for Chickweed plant response rating: scale 0 to 100 (0 no effect, 100 complete control)
Summary of the method: as §1

[9] = system: oat, wild (wild oat Avena fatua); experiment: Test C postemergence, plant response rating; conditions: for Oat, Wild plant response rating: scale 0 to 100 (0 no effect, 100 complete control)
Summary of the method: as §1

[10] = system: lambsquarters (Chenopodium album); experiment: Test C postemergence, plant response rating; conditions: for Lambsquarters plant response rating: scale 0 to 100 (0 no effect, 100 complete control)
Summary of the method: as §1

[11] = system: ragweed (common ragweed, Ambrosia elatior); experiment: Test C postemergence, plant response rating; conditions: for Ragweed plant response rating: scale 0 to 100 (0 no effect, 100 complete control)
Summary of the method: as §1

[12] = system: nutsedge, yellow (yellow nutsedge, Cyperus esculentus); experiment: Test C postemergence, plant response rating; conditions: for Nutsedge, Yellow plant response rating: scale 0 to 100 (0 no effect, 100 complete control)
Summary of the method: as §1

[13] = system: barnyardgrass (Echinochloa crus-galli); experiment: Test C postemergence, plant response rating; conditions: for Plant response rating, Barnyardgrass: scale 0 to 100; for Barnyardgrass plant response rating: scale 0 to 100 (0 no effect, 100 complete control)
Summary of the method: as §1

[14] = system: morningglory (Ipomoea coccinea); experiment: Test C postemergence, plant response rating; conditions: for Morningglory plant response rating: scale 0 to 100 (0 no effect, 100 complete control)
Summary of the method: as §1

[15] = system: wheat (winter wheat, Triticum aestivum); experiment: Test C postemergence, plant response rating
Summary of the method: as §1

[16] = system: ryegrass, Italian (Italian ryegrass, Lolium multiflorum); experiment: Test C postemergence, plant response rating; conditions: for Ryegrass, Italian plant response rating: scale 0 to 100 (0 no effect, 100 complete control)
Summary of the method: as §1

kochia (Kochia scoparia) = experiment: Test C preemergence, plant response rating
[17] = system: windgrass (Apera spica-venti); experiment: Test C preemergence, plant response rating
[18] = system: pigweed, palmer (palmer pigweed, Amaranthus palmeri); experiment: Test C preemergence, plant response rating
[19] = system: galium (catchweed bedstraw, Galium aparine); experiment: Test C preemergence, plant response rating
[20] = 125 g ai/ha, scale 0 to 100 (0 no effect, 100 complete control)

O=C(CCCCC(F)(F)F)c1c(Br)cccc1Oc1ncc(Cl)cn1 [Compound 82]
Plant response rating, Poinsettia, Wild ([1]; 31 g ai/ha, scale 0 to 100): 0 | Plant response rating, Poinsettia, Wild ([1]; 62 g ai/ha, scale 0 to 100): 0 | Plant response rating, Poinsettia, Wild ([1]; 125 g ai/ha, scale of 0 to 100): 20 | Plant response rating, Barnyardgrass ([2]; 125 g ai/ha, scale of 0 to 100): 90 | Plant response rating, Barnyardgrass ([2]; 16 g ai/ha, scale 0 to 100): 5 | Plant response rating, Barnyardgrass ([2]; 31 g ai/ha, scale 0 to 100): 5 | Plant response rating, Barnyardgrass ([2]; 62 g ai/ha, scale 0 to 100): 20 | Plant response rating, Oat, Wild ([3]; 31 g ai/ha, scale 0 to 100): 0 | Plant response rating, Oat, Wild ([3]; 62 g ai/ha, scale 0 to 100): 5 | Plant response rating, Oat, Wild ([3]; 125 g ai/ha, scale of 0 to 100): 5 | Plant response rating, Surinam Grass ([4]; 31 g ai/ha, scale 0 to 100): 10 | Plant response rating, Surinam Grass ([4]; 62 g ai/ha, scale 0 to 100): 25 | Plant response rating, Surinam Grass ([4]; 125 g ai/ha, scale of 0 to 100): 35 | Plant response rating, Johnsongrass ([5]; 31 g ai/ha, scale 0 to 100): 5 | Plant response rating, Johnsongrass ([5]; 62 g ai/ha, scale 0 to 100): 40 | Plant response rating, Johnsongrass ([5]; 125 g ai/ha, scale of 0 to 100): 85 | Plant response rating, Velvetleaf ([6]; 16 g ai/ha, scale of 0 to 100): 35 | Plant response rating, Velvetleaf ([6]; 31 g ai/ha, scale 0 to 100): 45 | Velvetleaf plant response rating [6, 20]: 75 | Plant response rating, Blackgrass ([7]; 16 g ai/ha): 30 | Plant response rating, Blackgrass ([7]; 31 g ai/ha): 35 | Blackgrass plant response rating ([7]; 62 g ai/ha): 40 | Blackgrass plant response rating ([7]; 125 g ai/ha): 45 | Plant response rating, Chickweed ([8]; 16 g ai/ha, scale of 0 to 100): 55 | Plant response rating, Chickweed ([8]; 31 g ai/ha, scale 0 to 100): 85 | Chickweed plant response rating ([8]; 62 g ai/ha): 90 | Chickweed plant response rating ([8]; 125 g ai/ha): 90 | Plant response rating, Oat, Wild ([9]; 16 g ai/ha, scale of 0 to 100): 25 | Plant response rating, Oat, Wild ([9]; 31 g ai/ha, scale 0 to 100): 40 | Oat, Wild plant response rating ([9]; 62 g ai/ha): 40 | Oat, Wild plant response rating ([9]; 125 g ai/ha): 50 | Plant response rating, Lambsquarters ([10]; 16 g ai/ha, scale of 0 to 100): 70 | Plant response rating, Lambsquarters ([10]; 31 g ai/ha, scale 0 to 100): 75 | Lambsquarters plant response rating ([10]; 62 g ai/ha): 85 | Lambsquarters plant response rating ([10]; 125 g ai/ha): 90 | Plant response rating, Ragweed ([11]; 16 g ai/ha, scale of 0 to 100): 40 | Plant response rating, Ragweed ([11]; 31 g ai/ha, scale 0 to 100): 35 | Ragweed plant response rating ([11]; 62 g ai/ha): 60 | Ragweed plant response rating ([11]; 125 g ai/ha): 55 | Plant response rating, Nutsedge, Yellow ([12]; 16 g ai/ha, scale of 0 to 100): 10 | Plant response rating, Nutsedge, Yellow ([12]; 31 g ai/ha, scale 0 to 100): 10 | Nutsedge, Yellow plant response rating ([12]; 62 g ai/ha): 20 | Nutsedge, Yellow plant response rating ([12]; 125 g ai/ha): 10 | Plant response rating, Barnyardgrass ([13]; 16 g ai/ha): 10 | Plant response rating, Barnyardgrass ([13]; 31 g ai/ha): 10 | Barnyardgrass plant response rating ([13]; 62 g ai/ha): 10 | Barnyardgrass plant response rating ([13]; 125 g ai/ha): 60 | Plant response rating, Morningglory ([14]; 16 g ai/ha, scale of 0 to 100): 25 | Plant response rating, Morningglory ([14]; 31 g ai/ha, scale 0 to 100): 40 | Morningglory plant response rating ([14]; 62 g ai/ha): 30 | Morningglory plant response rating ([14]; 125 g ai/ha): 75 | Plant response rating, Wheat ([15]; 16 g ai/ha, scale of 0 to 100): 5 | Plant response rating, Wheat ([15]; 31 g ai/ha, scale 0 to 100): 10 | Wheat plant response rating [15, 20]: 30 | Plant response rating, Ryegrass, Italian ([16]; 16 g ai/ha, scale of 0 to 100): 5 | Plant response rating, Ryegrass, Italian ([16]; 31 g ai/ha, scale 0 to 100): 15 | Ryegrass, Italian plant response rating ([16]; 62 g ai/ha): 20 | Ryegrass, Italian plant response rating ([16]; 125 g ai/ha): 25 | Plant response rating, Kochia (kochia (Kochia scoparia); 31 g ai/ha, scale 0 to 100): 50 | Plant response rating, Kochia (kochia (Kochia scoparia); 62 g ai/ha, scale 0 to 100): 90 | Plant response rating, Kochia (kochia (Kochia scoparia); 125 g ai/ha, scale of 0 to 100): 95 | Plant response rating, Windgrass ([17]; 31 g ai/ha, scale 0 to 100): 30 | Plant response rating, Windgrass ([17]; 62 g ai/ha, scale 0 to 100): 80 | Plant response rating, Windgrass ([17]; 125 g ai/ha, scale of 0 to 100): 90 | Plant response rating, Pigweed, Palmer ([18]; 31 g ai/ha, scale 0 to 100): 85 | Plant response rating, Pigweed, Palmer ([18]; 62 g ai/ha, scale 0 to 100): 100 | Plant response rating, Pigweed, Palmer ([18]; 125 g ai/ha, scale of 0 to 100): 100 | Plant response rating, Galium ([19]; 31 g ai/ha, scale 0 to 100): 0 | Plant response rating, Galium ([19]; 62 g ai/ha, scale 0 to 100): 0 | Plant response rating, Galium ([19]; 125 g ai/ha, scale of 0 to 100): 80
